Columns and labels:
Conditions in all cases: 48 h
[1] = system: SEM cells; assay: AUC of viability dose-response curve (% viability x log10 dose units); higher = less sensitive
Summary of the method: (§1)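 Leukemia cells adapted to each medium were seeded in 1536-well plates (500 or 1000 cells/well). They were dosed with library compounds in DMSO at 11 threefold doses, 47 μM to 0.79 nM, for 48 h at 37°C. CellTiter-Glo One luminescence was normalised per plate to DMSO and cell-free wells. Area under the curve was integrated by trapezoidal rule over log10 doses on a four-parameter log-logistic fit; curves exceeding full viability were scaled and curves failing quality control removed.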

[2] = system: NOMO1; assay: as above
Summary of the method: as §1

[3] = system: P12-Ichikawa; assay: as above
Summary of the method: as §1

[4] = system: SEM cells; assay: cell viability relative to DMSO control; higher = less cytotoxic
Summary of the method: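 Library compounds in DMSO were pin-dosed into 1536-well plates (5 μl) holding NOMO1 or SEM (500 cells/well) or P12-Ichikawa (1000 cells/well) leukemia cells, across an 11-point threefold series of 47 μM to 0.79 nM. Each cell line had been adapted for at least four passages in each medium. CellTiter-Glo One luminescence was read after 48 h at 37°C. Viability is the per-plate percentage relative to DMSO wells, with cell-free wells as background.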

CCC[C@H](NC(=O)[C@@H]1[C@H]2CCC[C@H]2CN1C(=O)[C@@H](NC(=O)[C@@H](NC(=O)c1cnccn1)C1CCCCC1)C(C)(C)C)C(=O)C(=O)NC1CC1
AUC of viability dose-response curve
Conditions | [1] | [2] | [3]
HPLM + 10% dialyzed FBS | 454 | 461 | 474
RPMI 5 mM glucose + 10% FBS | 469 | 474 | 473
RPMI 5 mM glucose + 10% dialyzed FBS | 470 | 472 | 476

[4], HPLM + 10% dialyzed FBS
Conditions | cell viability [%]
0.000781 µM | 106
0.00234 µM | 99.8
0.00702 µM | 106
0.0211 µM | 106
0.0632 µM | 111
0.19 µM | 118
0.569 µM | 118
1.71 µM | 119
5.12 µM | 127
15.4 µM | 111
46.1 µM | 116

CNC(=O)c1c(-c2ccc(F)cc2)oc2cc(N(CCO)[S+](C)(=O)[O-])c(C3CC3)cc12
AUC of viability dose-response curve
Conditions | HPLM + 10% dialyzed FBS | RPMI 5 mM glucose + 10% FBS | RPMI 5 mM glucose + 10% dialyzed FBS
[2] | 395 | 412 | 425
[3] | 382 | 407 | 404

cell viability [%], [4]
Conditions | HPLM + 10% dialyzed FBS | RPMI 5 mM glucose + 10% FBS | RPMI 5 mM glucose + 10% dialyzed FBS
0.000781 µM | 82.4 | 44.5 | 75.4
0.00234 µM | 117 | 71.1 | 111
0.00702 µM | 117 | 77.3 | 118
0.0211 µM | 110 | 69.1 | 106
0.0632 µM | 71.9 | 41.9 | 65.2
0.19 µM | 51.8 | 26.8 | 46.8
0.569 µM | 67.2 | 39.9 | 59.4
1.71 µM | 51.2 | 31.5 | 48
5.12 µM | 25.4 | 23.8 | 24.4
15.4 µM | 14.3 | 5.58 | 10.2
46.1 µM | 3.38 | 1.22 | 1

CC(C)(CO)[C@@H](O)C(=O)NCCC(=O)O
AUC of viability dose-response curve
Conditions | [1] | [2] | [3]
HPLM + 10% dialyzed FBS | 469 | 440 | 466
RPMI 5 mM glucose + 10% FBS | 471 | 470 | 471
RPMI 5 mM glucose + 10% dialyzed FBS | 465 | 461 | 463

ClC1=C[NH]N=C1C\2NC(=N\C3=C2C(=O)CCC3)/NC4=NC5=CC=CC=C5O4 (centres undefined)
AUC of viability dose-response curve
Conditions | [1] | [2] | [3]
HPLM + 10% dialyzed FBS | 460 | 457 | 464
RPMI 5 mM glucose + 10% FBS | 452 | 463 | 453
RPMI 5 mM glucose + 10% dialyzed FBS | 441 | 465 | 455

CCn1cc(-c2ccnc3[nH]c(-c4cccc(CN(C)C)c4)cc23)c(-c2ccc(NC(=O)N(C)C)cc2)n1
AUC of viability dose-response curve
Conditions | [1] | [2] | [3]
HPLM + 10% dialyzed FBS | 271 | 375 | 220
RPMI 5 mM glucose + 10% FBS | 224 | 318 | 234
RPMI 5 mM glucose + 10% dialyzed FBS | 233 | 323 | 252

[4], HPLM + 10% dialyzed FBS
Conditions | cell viability [%]
0.000781 µM | 123
0.00234 µM | 112
0.00702 µM | 135
0.0211 µM | 138
0.0632 µM | 79.6
0.19 µM | 52.5
0.569 µM | 44.8
1.71 µM | 48.9
5.12 µM | 41.6
15.4 µM | 19.4
46.1 µM | 9.33

CCCc1cc(C(N)=S)ccn1
AUC of viability dose-response curve
Conditions | [1] | [2] | [3]
HPLM + 10% dialyzed FBS | 446 | 470 | 466
RPMI 5 mM glucose + 10% FBS | 469 | 472 | 436
RPMI 5 mM glucose + 10% dialyzed FBS | 475 | 465 | 472

[4], HPLM + 10% dialyzed FBS
Conditions | cell viability [%]
0.000781 µM | 92.5
0.00234 µM | 110
0.00702 µM | 111
0.0211 µM | 113
0.0632 µM | 114
0.19 µM | 117
0.569 µM | 85.6
1.71 µM | 56.3
5.12 µM | 119
15.4 µM | 130
46.1 µM | 133

NC/1=N/C(=O)C2=C(N1)[N](C=N2)[C@@H]3C[C@H](O)[C@@H](CO)C3=C
AUC of viability dose-response curve
Conditions | [1] | [2] | [3]
HPLM + 10% dialyzed FBS | 248 | 385 | 351
RPMI 5 mM glucose + 10% FBS | 272 | 423 | 342
RPMI 5 mM glucose + 10% dialyzed FBS | 200 | 378 | 331

COc1ccc2cc([C@H](C)C(=O)O)ccc2c1
AUC of viability dose-response curve
Conditions | [1] | [2] | [3]
HPLM + 10% dialyzed FBS | 412 | 465 | 448
RPMI 5 mM glucose + 10% FBS | 401 | 476 | 469
RPMI 5 mM glucose + 10% dialyzed FBS | 410 | 460 | 464

C[S+](=O)([O-])c1cc(F)cc2c3c(n(Cc4ccc(Cl)cc4)c12)[C@@H](CC(=O)O)CC3
AUC of viability dose-response curve
Conditions | HPLM + 10% dialyzed FBS | RPMI 5 mM glucose + 10% FBS | RPMI 5 mM glucose + 10% dialyzed FBS
[1] | 477 | 468 | 461
[3] | 466 | 451 | 467

COCCOc1ccc2c(c1)ncn2-c1ccc2cccc(N3CCC(N)CC3)c2n1
AUC of viability dose-response curve
Conditions | HPLM + 10% dialyzed FBS | RPMI 5 mM glucose + 10% FBS | RPMI 5 mM glucose + 10% dialyzed FBS
[2] | 394 | 418 | 405
[3] | 377 | 405 | 394

cell viability [%], [4]
Conditions | HPLM + 10% dialyzed FBS | RPMI 5 mM glucose + 10% FBS | RPMI 5 mM glucose + 10% dialyzed FBS
0.000781 µM | 83.8 | 99.7 | 112
0.00234 µM | 77.9 | 115 | 101
0.00702 µM | 70.3 | 109 | 72.2
0.0211 µM | 59.8 | 67.6 | 65.2
0.0632 µM | 52.5 | 58.7 | 51.3
0.19 µM | 51.6 | 47.8 | 46.1
0.569 µM | 46.6 | 50.9 | 44.6
1.71 µM | 42.5 | 44.1 | 41.8
5.12 µM | 21.7 | 25.8 | 23.7
15.4 µM | 12.8 | 12.3 | 13.1
46.1 µM | 4.13 | 3.44 | 3.97

NC(=O)c1cccnc1
AUC of viability dose-response curve
Conditions | [1] | [2] | [3]
HPLM + 10% dialyzed FBS | 448 | 438 | 451
RPMI 5 mM glucose + 10% FBS | 449 | 464 | 466
RPMI 5 mM glucose + 10% dialyzed FBS | 457 | 409 | 466

Source: the supplement of paper PMC11451515
